Reference: PubChem BioAssay (NCI)
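Cultured in 96-well plates, cells were exposed to test compound for 48 hours across five concentrations. TGI is the concentration that stops growth completely.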 Where a SMILES comes first, the peptide text is derived from it. Bridges are numbered along the chain shown (N, C = ends).

Key:
Assay in all cases: growth of human tumour cells (NCI), 48 h
[1] = test system: SF-295 CNS
[2] = test system: SR leukemia
[3] = test system: K-562 leukemia
[4] = test system: UACC-257 melanoma
[5] = test system: BT-549 breast
[6] = test system: SK-MEL-2 melanoma
[7] = test system: MCF7 breast
[8] = test system: SNB-19 CNS
[9] = test system: KM12 colon
[10] = test system: SN12C renal

Structure (SMILES): C[C@H](CCc1nc(C#N)c(N)o1)[C@H]1CC[C@H]2[C@@H]3CCC4C[C@@H](O)CC[C@]4(C)[C@H]3C[C@@H](O)[C@]12C (stereo not given in full)
- TGI [1]: 30.5 µM
- TGI [2]: 29 µM
- TGI [3]: 39.6 µM
- TGI [4]: 20.4 µM
- TGI [5]: 14.7 µM
- TGI [6]: 32.2 µM
- TGI [7]: 35.7 µM
- TGI [8]: 31 µM
- TGI [9]: 28.2 µM
- TGI [10]: 24.6 µM

Structure (SMILES): C[C@]12CC[C@H]3[C@@H](CC=C4C[C@@H](O)CC[C@@]43C)[C@@H]1C/C(=C\c1ccc([N+](=O)[O-])cc1)[C@@H]2O
- TGI [1]: 46.5 µM
- TGI [2]: > 100 µM
- TGI [3]: > 100 µM
- TGI [4]: 59 µM
- TGI [5]: 38 µM
- TGI [6]: 52.9 µM
- TGI [7]: 19.6 µM
- TGI [8]: 38.7 µM
- TGI [9]: > 100 µM
- TGI [10]: 22.9 µM

Structure (SMILES): Cc1cc(NS(=O)(=O)c2ccc(Nc3c4ccccc4nc4c(C(=O)NC(CO)(CO)CO)cccc34)cc2)no1
- TGI [1]: > 100 µM
- TGI [2]: 91.4 µM
- TGI [3]: > 100 µM
- TGI [4]: > 100 µM
- TGI [5]: 98.9 µM
- TGI [6]: 48.5 µM
- TGI [7]: > 100 µM
- TGI [8]: > 100 µM
- TGI [9]: 71.4 µM
- TGI [10]: 78.6 µM

Structure (SMILES): COC1(C)CCC(OS(C)(=O)=O)CO1 (stereo not given)
- TGI [1]: > 100 µM
- TGI [2]: > 100 µM
- TGI [3]: > 100 µM
- TGI [4]: > 100 µM
- TGI [5]: > 100 µM
- TGI [6]: > 100 µM
- TGI [7]: > 100 µM
- TGI [8]: > 100 µM
- TGI [9]: > 100 µM
- TGI [10]: > 100 µM

Structure (SMILES): CC(=O)N1CCOC12N=NC(C)(C)O2 (stereo not given)
- TGI [1]: > 100 µM
- TGI [2]: > 100 µM
- TGI [3]: > 100 µM
- TGI [4]: > 100 µM
- TGI [5]: > 100 µM
- TGI [6]: > 100 µM
- TGI [7]: > 100 µM
- TGI [8]: > 100 µM
- TGI [9]: > 100 µM
- TGI [10]: > 100 µM

Structure (SMILES): CC(Cl)(CCC(Cl)C(C)(C)Cl)C(=O)CBr (stereo not given)
- TGI [1]: 55.4 µM
- TGI [2]: 6.54 µM
- TGI [3]: > 100 µM
- TGI [4]: 25.5 µM
- TGI [5]: 27.3 µM
- TGI [6]: 30.3 µM
- TGI [7]: 28.5 µM
- TGI [8]: > 85.5 µM
- TGI [9]: 29.6 µM
- TGI [10]: 28.7 µM

Structure (SMILES): COC(=O)CCCc1nc2ccccc2nc1N=Nc1ccccc1
- TGI [1]: > 100 µM
- TGI [2]: 72.7 µM
- TGI [3]: 58.2 µM
- TGI [4]: > 100 µM
- TGI [5]: > 100 µM
- TGI [6]: > 100 µM
- TGI [7]: > 100 µM
- TGI [8]: > 100 µM
- TGI [9]: > 100 µM
- TGI [10]: > 100 µM

Structure (SMILES): Cc1cc2ccccc2n2c1nc1ccc(O)cc12
- TGI [1]: > 10 µM
- TGI [2]: > 10 µM
- TGI [3]: > 10 µM
- TGI [4]: > 10 µM
- TGI [5]: > 10 µM
- TGI [6]: > 10 µM
- TGI [7]: > 10 µM
- TGI [8]: > 10 µM
- TGI [9]: > 10 µM
- TGI [10]: > 10 µM

Structure (SMILES): COC(=O)C1CCC(=O)NCCCCC(NC(=O)C(N)CC(=O)O)C(=O)N1 (stereo not drawn) (H-Asp-Lys-Glu-OMe; lactam 2-3; configuration not given here)
- TGI [1]: > 100 µM
- TGI [2]: > 100 µM
- TGI [3]: > 100 µM
- TGI [4]: > 100 µM
- TGI [5]: > 100 µM
- TGI [6]: > 100 µM
- TGI [7]: > 100 µM
- TGI [8]: > 100 µM
- TGI [9]: > 100 µM
- TGI [10]: > 100 µM

Structure (SMILES): C=C1c2nc3ccccc3n2C=C(c2ccccc2)N1c1ccc(C)cc1
- TGI [1]: > 100 µM
- TGI [2]: > 100 µM
- TGI [3]: > 100 µM
- TGI [4]: > 100 µM
- TGI [5]: > 100 µM
- TGI [6]: > 100 µM
- TGI [7]: > 100 µM
- TGI [8]: > 100 µM
- TGI [9]: 56.1 µM
- TGI [10]: > 100 µM

Structure (SMILES): C/C(=N\Nc1nc2cc(F)ccc2s1)c1ccccn1
- TGI [1]: 4.67 µM
- TGI [2]: > 100 µM
- TGI [3]: > 43.8 µM
- TGI [4]: > 24.4 µM
- TGI [5]: 5.84 µM
- TGI [6]: 7.33 µM
- TGI [7]: > 100 µM
- TGI [8]: > 41.7 µM
- TGI [9]: > 23.4 µM
- TGI [10]: > 43.8 µM

Structure (SMILES): COC(=O)[C@@H]1C=CCN1S(=O)(=O)c1ccc(C)cc1
- TGI [1]: > 100 µM
- TGI [2]: 58.8 µM
- TGI [3]: > 100 µM
- TGI [4]: > 100 µM
- TGI [5]: > 100 µM
- TGI [6]: > 100 µM
- TGI [7]: > 100 µM
- TGI [8]: > 100 µM
- TGI [9]: > 100 µM
- TGI [10]: > 100 µM

Structure (SMILES): COc1ccc(Cn2c(=O)c(OS(=O)(=O)C(F)(F)F)c(C)c3cc4ccccc4cc32)cc1
- TGI [1]: > 100 µM
- TGI [2]: > 100 µM
- TGI [3]: > 100 µM
- TGI [4]: > 100 µM
- TGI [5]: > 100 µM
- TGI [6]: > 100 µM
- TGI [7]: > 100 µM
- TGI [8]: > 100 µM
- TGI [9]: > 100 µM
- TGI [10]: > 100 µM

Structure (SMILES): O=S1(=O)N=C(SCc2c[nH]c3ccccc23)N(c2ccccc2)c2ccncc21
- TGI [1]: > 100 µM
- TGI [2]: > 100 µM
- TGI [3]: > 100 µM
- TGI [4]: > 100 µM
- TGI [5]: > 100 µM
- TGI [6]: > 100 µM
- TGI [7]: > 100 µM
- TGI [8]: > 100 µM
- TGI [9]: > 100 µM
- TGI [10]: > 100 µM

Structure (SMILES): CC1=NN(c2ccccc2)C(=O)/C1=C\c1c(C)[nH]n(-c2ccccc2)c1=O
- TGI [1]: > 100 µM
- TGI [2]: > 100 µM
- TGI [3]: > 100 µM
- TGI [4]: > 100 µM
- TGI [5]: > 100 µM
- TGI [6]: > 100 µM
- TGI [7]: > 100 µM
- TGI [8]: > 100 µM
- TGI [9]: > 100 µM
- TGI [10]: > 100 µM

Structure (SMILES): Cc1cccc(NC(=S)Nc2cccc(Cl)c2)n1
- TGI [1]: > 78.4 µM
- TGI [2]: > 100 µM
- TGI [3]: > 100 µM
- TGI [4]: > 100 µM
- TGI [5]: > 100 µM
- TGI [6]: > 100 µM
- TGI [7]: > 100 µM
- TGI [8]: > 100 µM
- TGI [9]: > 100 µM
- TGI [10]: > 100 µM

Structure (SMILES): CCOP(=O)(OCC)C(c1ccccc1)N(C(=O)NC(F)(F)F)c1ccc(C)cc1 (stereo not given)
- TGI [1]: > 100 µM
- TGI [2]: > 100 µM
- TGI [3]: > 100 µM
- TGI [4]: > 100 µM
- TGI [5]: > 100 µM
- TGI [6]: > 100 µM
- TGI [7]: > 100 µM
- TGI [8]: > 100 µM
- TGI [9]: > 100 µM
- TGI [10]: > 100 µM
